Experimental data from patent US8101410B2 (Entelechon GmbH, priority 2005, dated 2012).
Like-named read-outs stand apart in the source and are kept apart here.

Experiments:
[1] = tested on: Nicotiana tabacum cv. Petit Havana SR1 shoots
Procedure: In one set of experiments uniformly looking ˜1 cm long shoots were taken while in a second set of experiments a bunch of 6-8 shoots were used.
For this purpose, shoots of Nicotiana tabacum cv. Petit Havana SR1 were obtained by multiplying the shoots regenerated from the leaf segments on MS medium supplemented with 2 mg/l BAP.

[2] = tested on: Brassica juncea wild type shoots
[3] = tested on: Brassica juncea cv. Varuna explants (wild type)
[4] = tested on: shoots of codAps transgenic lines A, B, D and E of Brassica juncea cv. Varuna
Text: The codA gene was isolated in the inventors' laboratory from local strain of Arthrobacter globiformis (GenBank accession number AY589052, hereafter referred as codAps gene) and cloned into pPZP200lox(npt 11) vector (obtained from Dr. Deepak Pental, Department of Genetics, South Campus, University of Delhi, New Delhi, India). The resultant vector named as pSG was electroporated into Agrobacterium tumefaciens strain GV3101. Hypocotyl and cotyledonary petiolar explants were excised from 6 d old sterile seedlings were transformed using Agrobacterium tumefaciens strain GV3101/pSG/codAps.

[5] = tested on: homozygous codAps transgenic lines A, B, D and E of Brassica juncea cv. Varuna seeds/seedlings; settings: for seedling growth: transgenic lines
Procedure: (§1) T2 seeds of various independent homozygous transgenic lines of Brassica juncea cv. […] Homozygous transgenic genotypes were identified based on 100 percent germination of T2 seed of various independent transformed lines in the presence of 50 mg/l kanamycin.
For these studies seeds from four homozygous transgenic lines (lines A, B, D and E) of T2 generation were used. The homozygous genotypes were identified based on 100 percent germination of seed in the presence of 50 mg/l kanamycin (i.e. otherwise lethal to wild type/non-transgenic lines).

Nicotiana tabacum L. [6] = settings: Present Investigations
plant cells [7] = settings: Table 2, choline, present investigations
[8] = tested on: Brassica juncea cv. Varuna wild type seeds/seedlings
Procedure: as §1

Brassica juncea L. = settings: Present Investigations
[9] = tested on: wild type/non-transgenic lines of Brassica juncea cv. Varuna; test: Seed germination in the presence of kanamycin; assay type: in vivo
plant cells [10] = settings: Table 2, range over plant species, literature; cited from earlier work
Nicotiana tabacum L. [11] = settings: Haldrup et al. (1998); cited from earlier work
[12] = tested on: Lycopersicon esculentum L.; settings: Haldrup et al. (1998); cited from earlier work
Solanum tuberosum L. = settings: Haldrup et al. (1998); cited from earlier work
[13] = lower concentrations of choline, shoot induction medium
[14] = 60 mM choline, transgenic lines

C[N+](C)(C)CCO.[Cl-] [Choline, choline chloride]
time to loss of green pigmentation followed by senescence/death after inoculation ([1]; 40 mM choline): ≤ 7 days
shoot growth ([1]; MS medium with choline chloride 20 and 40 mM): significantly curtailed shoot growth
growth of shoots ([2]; MS medium with choline chloride 5-60 mM, wild type): significantly curtailed the growth of shoots
time to death of shoots after inoculation ([2]; choline 20 mM and above, wild type shoots): ≤ 15 days
choline concentration giving loss in green pigmentation followed by browning/senescence leading to death ([2]; wild type shoots, MS medium): ≥ 20 mM
cotyledonary explants that lost green pigmentation completely ([3]; 40 mM choline): ~100%
cultures exhibiting callogenesis ([3]; 40 mM choline): 100%
shoot induction (caulogenesis) from hypocotyl and cotyledonary petiolar explants ([3]; choline chloride 10, 20, 30, 40 mM in shoot induction medium (MS + BAP, NAA, AgNO3), 20 d): suppressed shoot induction
expansion of the cotyledonary leaves of cotyledonary petiolar explants ([3]; choline in shoot induction medium, effect increases with concentration): significantly curtailed the expansion of the cotyledonary leaves
callogenesis i.e. callus induction [3, 13]: did not cause any significant alteration in callogenesis
rhizogenesis [3, 13]: promoted rhizogenesis
growth of the shoots ([4]; 40 mM choline, transgenic lines): no significant alteration in the growth
green pigmentation [4, 14]: no loss in green pigmentation
growth of shoots [4, 14]: suppression in the growth
choline concentration that shoots were able to withstand ([4]; transgenic lines A, B, D, E, MS medium): ≤ 60 mM
fresh weight of seedlings, lower than respective controls ([5]; four independent transgenic lines, 40 mM choline, MGM, 30 d): 25-30%
seed germination and seedling growth ([5]; transgenic lines A, B, D, E, MGM, 40 mM choline vs 20 mM): delay in seed germination as well as reduction in seedling growth
seed germination ([5]; transgenic lines A, B, D, E, MS medium, all concentrations of choline tested (20, 40 mM)): 100%
seedling growth ([5]; MS medium, 20 mM choline and below): comparable to those grown in the absence of choline
seedling growth ([5]; MS medium, 40 mM choline): significant reduction in seedling growth
Selection concentration (Nicotiana tabacum L. [6]): 5584 mg/L
Selection concentration (plant cells [7]): 5584 mg/L
fresh weight of seedlings, lower than those raised in absence of choline ([8]; 40 mM choline, MGM, 30 d): 90%
seed germination and early seedling growth ([8]; MGM (half strength MS without sucrose/organics) with choline): significantly curtailed
percent seed germination as well as seedling growth ([8]; MS medium supplemented with choline (20, 40 mM)): suppressed significantly
seed germination ([8]; MS medium, 40 mM choline): almost no/little seed germination
Selection concentration (Brassica juncea L.): 5584 mg/L

NC[C@H]1O[C@H](O[C@H]2[C@H](O)[C@@H](O[C@H]3O[C@H](CO)[C@@H](O)[C@H](N)[C@H]3O)[C@H](N)C[C@@H]2N)[C@H](O)[C@@H](O)[C@@H]1O [Kanamycin]
kanamycin concentration lethal to wild type/non-transgenic lines [9]: 50 mg/L

CP(=O)(O)CC[C@H](N)C(=O)O [Phosphinothricin]
Selection concentration (plant cells [10]): 5 to 10 mg/L

O=C[C@H](O)[C@@H](O)[C@H](O)CO [Xylose]
Selection concentration (Nicotiana tabacum L. [11]): 20000 mg/L
Selection concentration [12]: 15000 mg/L
Selection concentration (plant cells [10]): 3750 to 20000 mg/L
Selection concentration (Solanum tuberosum L.): 3750 mg/L

[Cl-].[K+] [potassium chloride, reference compound]
shoot induction ([3]; potassium chloride 10, 20, 30, 40 mM in place of choline chloride): no significant alteration
expansion of cotyledons and/or green pigmentation ([3]; potassium chloride at highest concentration (40 mM)): did not cause any suppression in the expansion of cotyledons and/or alteration in green pigmentation
